According to publication PMC6105642, “A platform for discovery of functional cell-penetrating peptides for efficient multi-cargo intracellular delivery” (Scientific Reports, 2018):
Square brackets hold non-standard residues; d marks the D form. Peptide text beside a SMILES is read from it.

Columns and labels:
T47D cells = assay: ^DPMIα delivery cell viability assay; assay type: cell-based, human; details: 48 h incubation; presence of sera; resazurin reduction potential
Description: A variety of cell types and cargos confirmed the potency and versatility of Phylomer CPP delivery. Different functional assays applied readouts designed to directly quantify delivery of an established biologic cargo. […] CPP_^DPMIα synthetic peptides (Supplementary Table 7 and Fig. 3a, cargo 2) reduced viability of human breast tumor cells (T47D) in the presence of sera, indicating the successful delivery of ^DPMIα into the cells (Fig. 5a).
All cell viability studies were performed in the presence of FCS. Cells were seeded at 2.5–5 × 10^3 cells/well, depending on cell line, in 96-well plates (PAP assays: CHO-K1 at 3 × 10^3 cells/well; peptide cytotoxicity assays: CHO-K1 at 5 × 10^3 cells/well; Bouganin assay: CHO-K1 and CHO-K1/EGFR at 2.5 × 10^3 cells/well; ^DPMIα assays: T47D at 5 × 10^3 cells/well; Omomyc assays: all cell lines at 5 × 10^3 cells/well). In brief, adherent cells were allowed to adhere for 24 h prior to the addition of treatments whereas suspension cell lines were treated immediately following seeding. […] Membrane integrity was assessed by the release of LDH into the media via the CytoTox-ONE reagent (Promega). Metabolic activity was measured either by resazurin reduction potential using PrestoBlue (Life Technologies) or by ATP activity using CellTitre-Glo (Promega). […] IC50 values were calculated using Prism (version 7.0a, GraphPad).

CHO-K1 cells = assay: Peptide cytotoxicity, cell viability by resazurin reduction; assay type: cell-based; details: CPP alone up to 50 µM, 24 h and 48 h, presence of sera
Description: To ensure that 1746 and 1746c27 are not innately cytotoxic, we assessed their effect on cell viability. CHO-K1 cells were treated with CPPs in the presence of sera at 24 h (Fig. 4a) and 48 h (Fig. 4b). The effects of CPPs on cellular membrane stability were assessed using a LDH enzymatic assay, measuring LDH release at 2 h (Fig. 4c) and 24 h (Fig. 4d) after peptide addition.
All cell viability studies were performed in the presence of FCS. Cells were seeded at 2.5–5 × 10^3 cells/well, depending on cell line, in 96-well plates (PAP assays: CHO-K1 at 3 × 10^3 cells/well; peptide cytotoxicity assays: CHO-K1 at 5 × 10^3 cells/well; Bouganin assay: CHO-K1 and CHO-K1/EGFR at 2.5 × 10^3 cells/well; ^DPMIα assays: T47D at 5 × 10^3 cells/well; Omomyc assays: all cell lines at 5 × 10^3 cells/well). In brief, adherent cells were allowed to adhere for 24 h prior to the addition of treatments whereas suspension cell lines were treated immediately following seeding. Following 2–48 h incubations with treatments, cell viability was measure by a variety of methods. Membrane integrity was assessed by the release of LDH into the media via the CytoTox-ONE reagent (Promega). Metabolic activity was measured either by resazurin reduction potential using PrestoBlue (Life Technologies) or by ATP activity using CellTitre-Glo (Promega). […] IC50 values were calculated using Prism (version 7.0a, GraphPad).

C57BL/6J mice = assay: Serum parameters of kidney and liver toxicity in mice; assay type: in vivo, mouse; details: 40 mg/kg/day IP for 7 days, n = 6
Description: To examine 1746c27 toxicity in vivo, a cohort of adult male C57BL/6J mice (n = 6) were treated with the CPP. Following approved standard preliminary toxicity testing guidelines (Food and Drug Administration, FDA, and European Medicines Agency, EMA), mice were injected intraperitoneally daily for 7 days with 40 mg/kg of 1746c27. After a further 8 days the mice were culled (on day 15) and serum was extracted and used to examine kidney and liver toxicity. Urea, creatinine, aspartate transaminase (AST) and alanine transaminase (ALT) concentrations were measured. […] ALT (p = 0.054) and creatinine (p = 0.01) levels were lower compared to untreated control mice, which supports the finding of minimal toxicity.
All mouse studies were approved by the Animal Ethics Committee of The University of Western Australia in accordance with the Australian Code of Practice for the Care and Use of Animals for Scientific Purposes (NH&MRC, 8th Edition, 2013). Studies were performed using adult male C57BL/6J mice weighing approximately 20 g. Mice were treated with 1746c27 (40 mg/kg/day intraperitoneally) for 7 days (day 1–7), followed by no treatment on days 8–15. On day 15, mice were anesthetized with intraperitoneal injection of pentobarbitone sodium (240 mg/kg), and their terminal blood collected. Serum was extracted and used to measure kidney and liver toxicity. Urea and creatinine concentration was assessed using QuantiChrom Urea and Creatinine assay kits, respectively (BioAssay Systems). Aspartate transaminase (AST) and alanine transaminase (ALT) concentration were measured using EnzyChrom Aspartate Transaminase and Alanine Transaminase assay kits, respectively (BioAssay Systems). All assays were performed as per manufacturer’s instructions, using a spectrophotometer (PowerWave XS).

AMO-1 (plasmacytoma) = assay: Omomyc cell viability assay (ATP activity); assay type: cell-based; details: 48 h
Source text: (§1) Next 1746c27 was used to deliver the Omomyc[45],[46] protein cargo. This well-characterized dominant-negative protein directly binds and inhibits the transcription factor MYC. A master regulator of critical cellular processes, MYC is an intracellular oncoprotein target deemed “undruggable” using conventional biological therapeutics. Treatment with recombinant 1746c27_Omomyc (Fig. 3a, cargo 4) induced a dose-dependent decrease in cell viability in MYC-dependent blood cancer cell lines and T47D cells in the presence of sera. […] The potency of 1746c27_Omomyc was greater than small molecule inhibitors of MYC, 10058-F4 and KJ-Pyr9 (Supplementary Fig. 8).
(§2) All cell viability studies were performed in the presence of FCS. […] Membrane integrity was assessed by the release of LDH into the media via the CytoTox-ONE reagent (Promega). Metabolic activity was measured either by resazurin reduction potential using PrestoBlue (Life Technologies) or by ATP activity using CellTitre-Glo (Promega). […] IC50 values were calculated using Prism (version 7.0a, GraphPad).

[1] = test system: HL-60 (promyelocytic leukemia); assay: Omomyc cell viability assay (ATP activity); assay type: cell-based; details: 48 h
Source text: as §1, §2

T47D (breast cancer) = assay: Omomyc cell viability assay (ATP activity); assay type: cell-based, human; details: 48 h
Source text: as §1, §2

C57BL/10ScSn^mdx mice = assay: Exon skipping in vivo by RT-PCR and Western blot; design: species or system mouse; details: five IP injections over two weeks, 4 nmoles per dose; RT-PCR / immunoblot; diaphragm, tibialis anterior, heart
Description: Exon skipping in vivo was evaluated at the (a, c) RNA and (b) protein level in the Duchenne muscular dystrophy mouse disease model. RNA was extracted from tissues of C57BL/10ScSn^mdx mice treated with five intra-peritoneal injections of CPP_PMO cargo over two weeks at 4 nmoles per dose (injected volume increased with increased weight of the mice). Pip6, a traditional carrier CPP for peptide-oligonucleotide conjugates in the mdx disease model of DMD^9, was tested in vivo in parallel for comparison. All samples were loaded onto the gel using normalization by myosin densitometry, to enable a quantitative comparison.^10
Tissues were sectioned (6 µm thickness) before adding lysis buffer. Otherwise exon skipping assays and RT-PCR detection were performed following the same protocols used for detection of exon skipping in vitro in myoblasts cells (see Methods of main text).
Samples were vortexed for 10 sec, sonicated at a setting of 30/100 (Sonics sonicator) for 6 x 1 sec pulses, heated at 95 °C for 5 min and centrifuged at 14,000rpm on a Beckman microfuge for 4 min before loading. Total protein was quantitated by BCA assay (Pierce). Average total protein concentration was 2.3 µg/µl. […] Coomassie stained bands were analysed using Bio1D software and the results were used as a loading control to provide equal loading for the western gel that followed. […]

CC(=O)NCC(=O)N[C@@H](CCCNC(=N)N)C(=O)N[C@@H](CCCCN)C(=O)N[C@@H](CCCCN)C(=O)N[C@@H](CCCNC(=N)N)C(=O)N[C@@H](CCCNC(=N)N)C(=O)N[C@@H](CCC(N)=O)C(=O)N[C@@H](CCCNC(=N)N)C(=O)N[C@@H](CCCNC(=N)N)C(=O)N[C@@H](CCCNC(=N)N)C(=O)NCC(=O)N[C@@H](C)C(=O)N[C@@H](CO)C(=O)N[C@@H](C(=O)N[C@H](CC(N)=O)C(=O)N[C@H](Cc1c[nH]c2ccccc12)C(=O)N[C@H](Cc1ccc(O)cc1)C(=O)N[C@H](C)C(=O)N[C@H](CC(N)=O)C(=O)N[C@H](CC(C)C)C(=O)N[C@H](CCC(=O)O)C(=O)N[C@H](CCCCN)C(=O)N[C@H](CC(C)C)C(=O)N[C@H](CC(C)C)C(=O)N[C@H](CCCNC(=N)N)C(N)=O)[C@H](C)O [TAT_^DPMIα, reference compound] (Ac-GRKKRRQRRRGAS[dT][dN][dW][dY][dA][dN][dL][dE][dK][dL][dL][dR]-NH2)
IC50 (T47D cells): 36.6 µM

Ac-KKKKQPPKPKKPKTQEKKKKQPPKPKR-NH2 (N-terminus and C-terminus assumed) [1746c27]
cytotoxic activity, cell viability (CHO-K1 cells): no measurable cytotoxicity | toxicity in vivo, in words (C57BL/6J mice): minimal evidence of toxicity | ALT Mean (C57BL/6J mice; serum day 15): 59.73 U/L | AST Mean (C57BL/6J mice; serum day 15): 84.98 U/L | Creatinine Mean (C57BL/6J mice; serum day 15): 0.33 mg/dL | Urea Mean (C57BL/6J mice; serum day 15): 50.99 mg/dL | effect on cell viability, in words (AMO-1 (plasmacytoma)): no notable effect on cell viability | effect on cell viability, in words [1]: no notable effect on cell viability | effect on cell viability, in words (T47D (breast cancer)): no notable effect on cell viability | exon 23 skipping in tissues, in words (C57BL/10ScSn^mdx mice): not detected

Ac-PLKPKKPKTQEKKKKQPPKPKKPKTQEKKKKQPPKPKRGAS[dT][dN][dW][dY][dA][dN][dL][dE][dK][dL][dL][dR]-NH2 [1746_^DPMIα]
IC50 (T47D cells): 9.1 µM
